Legend:
[1] = molecular target: T1, 3-oxo-5-alpha-steroid 4-dehydrogenase 1 (Homo sapiens, UniProt P18405); test: Apparent inhibition constant towards human Steroid 5-alpha-reductase type I; conditions: read-out: Ki app
T1 sequence (P18405 whole entry): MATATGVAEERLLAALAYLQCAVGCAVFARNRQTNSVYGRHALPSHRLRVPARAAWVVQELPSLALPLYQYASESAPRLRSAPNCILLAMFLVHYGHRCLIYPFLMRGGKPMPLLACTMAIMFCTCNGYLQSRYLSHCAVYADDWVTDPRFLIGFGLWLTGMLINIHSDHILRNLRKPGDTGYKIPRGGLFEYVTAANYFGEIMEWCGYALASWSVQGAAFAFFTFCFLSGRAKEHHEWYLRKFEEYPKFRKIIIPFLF

[2] = molecular target: T2, 3-oxo-5-alpha-steroid 4-dehydrogenase 2 (Homo sapiens, UniProt P31213); test: Apparent inhibition constant towards human Steroid 5-alpha-reductase type 2; conditions: read-out: Ki app
T2 sequence (P31213 whole entry): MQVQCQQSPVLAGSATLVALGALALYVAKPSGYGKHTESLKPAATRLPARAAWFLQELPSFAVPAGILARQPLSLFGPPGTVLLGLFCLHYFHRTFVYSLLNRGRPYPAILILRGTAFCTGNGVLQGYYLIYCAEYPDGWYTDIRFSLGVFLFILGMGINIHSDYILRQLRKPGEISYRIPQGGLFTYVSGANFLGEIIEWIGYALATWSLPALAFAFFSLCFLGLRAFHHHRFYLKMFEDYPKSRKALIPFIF

[3] = molecular target: T3, 3-oxo-5-alpha-steroid 4-dehydrogenase 2 (Homo sapiens) (UniProt P31213); test: Percent inhibition towards human Steroid 5-alpha-reductase type 2 at 2.5 uM concentration
T3 sequence (whole entry): T2 sequence (P31213 whole entry)

[4] = molecular target: T1, 3-oxo-5-alpha-steroid 4-dehydrogenase 1; test: Apparent inhibition constant towards human Steroid 5-alpha-reductase type I; […]

SMILES | Ki [1] [nM] | Ki [2] [nM] | inhibition [3] [%] | Ki app [4]
COc1cccc2c1CC=C1C=C(C(=O)O)CCC12C (centres undefined) | 1900 | 1600 | – | –
CN1C(=O)CCC2(C)c3ccc(Cl)cc3CCC12 (centres undefined) | 20 | > 5000 | – | –
CC(C)(C)NC(=O)[C@H]1CC[C@H]2[C@@H]3CC=C4C=C(C(=O)O)CC[C@]4(C)[C@H]3CC[C@]12C [EPRISTERIDE] | 410 | 0.2 | – | –
COc1cccc2c1CC=C1C=C(P(O)O)CCC12C (centres undefined) | 1900 | 1600 | – | –
CC(C)(C)NC(=O)[C@H]1CC[C@H]2[C@@H]3CC[C@H]4NC(=O)C=C[C@]4(C)[C@H]3CC[C@]12C [FINASTERIDE] | 100 | 2 | – | –
CC12CCC(P(O)O)=CC1=CCc1cc(Cl)ccc12 (centres undefined) | 1900 | 1600 | – | –
COc1ccc2c(c1)CC=C1C=C(C(=O)O)CCC12C (centres undefined) | – | > 2500 | 30 | No inhibition
CC(C)N(C(=O)[C@H]1CCC2C3CC=C4C=C(P(O)O)CC[C@]4(C)C3CC[C@@]21C)C(C)C (some centres undefined) | 4900 | 0.8 | – | –
CC12CCC(C(=O)O)=CC1=CCc1cc(Cl)ccc12 (centres undefined) | 1200 | 260 | – | –

Reference: ChEMBL document CHEMBL1127757, “A non-steroidal diene acid inhibitor of human type 2 stereoid 5-reductase” (Bioorg Med Chem Lett, 1994)
